# Source: ChEMBL document CHEMBL5696442, “Discovery of type II inhibitors of TGFβ-activated kinase 1 (TAK1) and mitogen-activated protein kinase kinase kinase kinase 2 (MAP4K2)” (J Med Chem, 2015)
# Active and inactive are the calls of the source. The rule behind the calls is not given here.
# How the values were obtained:
# [1] = biological target: Protein kinase C beta type (Homo sapiens) (UniProt P05771); experiment: Inhibition of PKCb Lys2 labeling site in human Huh-7 cell lysate at 1 uM by KiNativ Profiling analysis relative to control; assay type: subcellular
# [2] = biological target: T1, Dual specificity mitogen-activated protein kinase kinase 4 (Homo sapiens) (UniProt P45985); experiment: Inhibition of MAP2K4 Lys2 labeling site in human Huh-7 cell lysate at 1 uM by KiNativ Profiling analysis relative to control; assay type: subcellular
# T1 sequence (whole entry): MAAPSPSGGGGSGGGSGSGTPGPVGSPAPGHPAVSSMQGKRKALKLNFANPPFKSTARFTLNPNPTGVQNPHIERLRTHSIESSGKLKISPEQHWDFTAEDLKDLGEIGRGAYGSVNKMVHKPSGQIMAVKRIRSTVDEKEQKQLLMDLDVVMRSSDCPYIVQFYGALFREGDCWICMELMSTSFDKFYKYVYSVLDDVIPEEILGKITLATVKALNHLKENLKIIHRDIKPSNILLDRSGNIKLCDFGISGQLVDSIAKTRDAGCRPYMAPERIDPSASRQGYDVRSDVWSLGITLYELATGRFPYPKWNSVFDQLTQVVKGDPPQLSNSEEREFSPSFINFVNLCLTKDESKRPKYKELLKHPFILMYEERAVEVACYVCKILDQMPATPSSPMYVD
# [3] = biological target: Focal adhesion kinase 1 (Homo sapiens) (UniProt Q05397); experiment: Inhibition of FAK Lys1 labeling site in human A-375 cells at 5 uM by KiNativ Profiling analysis relative to control; assay type: cell-based
# Focal adhesion kinase 1 (Homo sapiens), sequence (Q05397 2-1052 limits assumed): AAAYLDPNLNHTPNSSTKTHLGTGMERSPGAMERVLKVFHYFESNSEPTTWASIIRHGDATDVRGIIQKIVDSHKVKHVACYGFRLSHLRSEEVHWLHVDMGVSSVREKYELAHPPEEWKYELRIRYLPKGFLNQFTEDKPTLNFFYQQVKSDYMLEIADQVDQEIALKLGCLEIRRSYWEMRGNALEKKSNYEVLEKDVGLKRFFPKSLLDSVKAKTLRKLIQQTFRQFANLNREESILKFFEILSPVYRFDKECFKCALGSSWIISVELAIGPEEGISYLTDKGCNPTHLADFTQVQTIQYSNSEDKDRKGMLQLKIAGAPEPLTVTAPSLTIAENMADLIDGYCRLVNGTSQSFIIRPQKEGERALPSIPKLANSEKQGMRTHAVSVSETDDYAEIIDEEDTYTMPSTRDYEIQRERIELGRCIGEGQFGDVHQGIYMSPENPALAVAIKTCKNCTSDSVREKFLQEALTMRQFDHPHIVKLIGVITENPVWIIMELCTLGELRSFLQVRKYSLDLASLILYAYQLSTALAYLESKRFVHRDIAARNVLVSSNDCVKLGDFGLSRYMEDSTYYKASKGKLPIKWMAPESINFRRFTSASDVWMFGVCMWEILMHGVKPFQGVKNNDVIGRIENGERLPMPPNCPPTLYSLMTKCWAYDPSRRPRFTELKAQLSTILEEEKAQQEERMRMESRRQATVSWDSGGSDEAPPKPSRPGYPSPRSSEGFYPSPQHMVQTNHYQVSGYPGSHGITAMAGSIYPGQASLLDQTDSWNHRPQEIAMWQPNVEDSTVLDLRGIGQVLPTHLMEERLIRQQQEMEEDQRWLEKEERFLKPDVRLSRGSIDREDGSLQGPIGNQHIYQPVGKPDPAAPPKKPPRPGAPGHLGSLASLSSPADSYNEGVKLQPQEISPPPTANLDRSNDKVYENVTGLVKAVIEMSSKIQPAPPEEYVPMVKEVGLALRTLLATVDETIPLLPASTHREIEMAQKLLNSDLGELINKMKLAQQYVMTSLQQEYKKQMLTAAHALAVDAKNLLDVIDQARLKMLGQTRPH
# [4] = biological target: T2, Eukaryotic elongation factor 2 kinase (Homo sapiens) (UniProt O00418); experiment: Inhibition of eEF2K ATP labeling site harbouring YIKYNSNSGFVRDDNIR in human A-375 cells at 0.5 uM by KiNativ Profiling analysis relative to control; assay type: cell-based
# T2 sequence (whole entry): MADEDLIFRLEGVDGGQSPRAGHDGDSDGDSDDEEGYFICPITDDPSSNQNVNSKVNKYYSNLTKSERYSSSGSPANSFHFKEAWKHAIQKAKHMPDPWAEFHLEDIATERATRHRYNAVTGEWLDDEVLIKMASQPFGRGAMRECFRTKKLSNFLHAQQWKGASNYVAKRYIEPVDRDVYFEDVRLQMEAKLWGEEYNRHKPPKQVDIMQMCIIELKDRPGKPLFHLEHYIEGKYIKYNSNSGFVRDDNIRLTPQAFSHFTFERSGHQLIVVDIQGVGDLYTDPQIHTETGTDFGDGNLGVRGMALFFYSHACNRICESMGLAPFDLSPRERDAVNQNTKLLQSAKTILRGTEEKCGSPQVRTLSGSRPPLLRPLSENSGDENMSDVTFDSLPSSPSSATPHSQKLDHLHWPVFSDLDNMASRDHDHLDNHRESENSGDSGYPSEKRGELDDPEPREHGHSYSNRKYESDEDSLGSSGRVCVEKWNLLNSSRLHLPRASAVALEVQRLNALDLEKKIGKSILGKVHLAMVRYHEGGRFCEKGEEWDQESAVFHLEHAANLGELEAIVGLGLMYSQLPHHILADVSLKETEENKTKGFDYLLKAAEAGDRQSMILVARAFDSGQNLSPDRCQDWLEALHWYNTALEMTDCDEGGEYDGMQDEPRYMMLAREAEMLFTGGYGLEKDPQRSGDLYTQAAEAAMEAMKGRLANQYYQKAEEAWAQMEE
# [5] = biological target: Ribosomal protein S6 kinase alpha-3 (Homo sapiens) (UniProt P51812); experiment: Inhibition of RSK2 Domain 2 K1 labeling site in human Huh-7 cells at 1 uM by KiNativ Profiling analysis relative to control; assay type: cell-based
# Ribosomal protein S6 kinase alpha-3 (Homo sapiens), sequence (P51812 whole entry, the tested form may be a part): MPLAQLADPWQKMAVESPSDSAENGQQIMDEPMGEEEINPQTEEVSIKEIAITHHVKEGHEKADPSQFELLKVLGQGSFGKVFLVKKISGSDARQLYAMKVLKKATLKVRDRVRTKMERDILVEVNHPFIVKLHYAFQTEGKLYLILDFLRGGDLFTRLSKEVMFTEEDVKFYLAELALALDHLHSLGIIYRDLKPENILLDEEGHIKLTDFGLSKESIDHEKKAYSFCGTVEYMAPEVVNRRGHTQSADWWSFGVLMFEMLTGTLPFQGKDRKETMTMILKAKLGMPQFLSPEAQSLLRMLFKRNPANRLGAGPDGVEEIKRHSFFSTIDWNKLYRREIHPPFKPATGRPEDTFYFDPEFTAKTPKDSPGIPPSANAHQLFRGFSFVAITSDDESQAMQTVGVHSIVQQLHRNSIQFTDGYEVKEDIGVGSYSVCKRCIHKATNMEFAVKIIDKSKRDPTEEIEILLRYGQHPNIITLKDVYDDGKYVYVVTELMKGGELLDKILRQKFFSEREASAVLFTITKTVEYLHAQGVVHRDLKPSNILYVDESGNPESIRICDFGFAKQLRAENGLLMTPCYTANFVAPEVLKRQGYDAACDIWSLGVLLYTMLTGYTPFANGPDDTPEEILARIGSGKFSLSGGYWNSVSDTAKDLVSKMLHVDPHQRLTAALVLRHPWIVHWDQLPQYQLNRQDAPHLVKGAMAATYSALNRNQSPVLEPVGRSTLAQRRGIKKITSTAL
# [6] = biological target: Epithelial discoidin domain-containing receptor 1 (Homo sapiens) (UniProt Q08345); experiment: Inhibition of DDR1 (unknown origin) at 10 uM by Ambit Kinomescan binding assay; values are per cent of control
# [7] = biological target: Mitogen-activated protein kinase kinase kinase 4 (Homo sapiens) (UniProt Q9Y6R4); experiment: Inhibition of MAP3K4 Lys2 labeling site in human A-375 cells at 0.05 uM by KiNativ Profiling analysis relative to control; assay type: cell-based
# Mitogen-activated protein kinase kinase kinase 4 (Homo sapiens), sequence (Q9Y6R4 whole entry): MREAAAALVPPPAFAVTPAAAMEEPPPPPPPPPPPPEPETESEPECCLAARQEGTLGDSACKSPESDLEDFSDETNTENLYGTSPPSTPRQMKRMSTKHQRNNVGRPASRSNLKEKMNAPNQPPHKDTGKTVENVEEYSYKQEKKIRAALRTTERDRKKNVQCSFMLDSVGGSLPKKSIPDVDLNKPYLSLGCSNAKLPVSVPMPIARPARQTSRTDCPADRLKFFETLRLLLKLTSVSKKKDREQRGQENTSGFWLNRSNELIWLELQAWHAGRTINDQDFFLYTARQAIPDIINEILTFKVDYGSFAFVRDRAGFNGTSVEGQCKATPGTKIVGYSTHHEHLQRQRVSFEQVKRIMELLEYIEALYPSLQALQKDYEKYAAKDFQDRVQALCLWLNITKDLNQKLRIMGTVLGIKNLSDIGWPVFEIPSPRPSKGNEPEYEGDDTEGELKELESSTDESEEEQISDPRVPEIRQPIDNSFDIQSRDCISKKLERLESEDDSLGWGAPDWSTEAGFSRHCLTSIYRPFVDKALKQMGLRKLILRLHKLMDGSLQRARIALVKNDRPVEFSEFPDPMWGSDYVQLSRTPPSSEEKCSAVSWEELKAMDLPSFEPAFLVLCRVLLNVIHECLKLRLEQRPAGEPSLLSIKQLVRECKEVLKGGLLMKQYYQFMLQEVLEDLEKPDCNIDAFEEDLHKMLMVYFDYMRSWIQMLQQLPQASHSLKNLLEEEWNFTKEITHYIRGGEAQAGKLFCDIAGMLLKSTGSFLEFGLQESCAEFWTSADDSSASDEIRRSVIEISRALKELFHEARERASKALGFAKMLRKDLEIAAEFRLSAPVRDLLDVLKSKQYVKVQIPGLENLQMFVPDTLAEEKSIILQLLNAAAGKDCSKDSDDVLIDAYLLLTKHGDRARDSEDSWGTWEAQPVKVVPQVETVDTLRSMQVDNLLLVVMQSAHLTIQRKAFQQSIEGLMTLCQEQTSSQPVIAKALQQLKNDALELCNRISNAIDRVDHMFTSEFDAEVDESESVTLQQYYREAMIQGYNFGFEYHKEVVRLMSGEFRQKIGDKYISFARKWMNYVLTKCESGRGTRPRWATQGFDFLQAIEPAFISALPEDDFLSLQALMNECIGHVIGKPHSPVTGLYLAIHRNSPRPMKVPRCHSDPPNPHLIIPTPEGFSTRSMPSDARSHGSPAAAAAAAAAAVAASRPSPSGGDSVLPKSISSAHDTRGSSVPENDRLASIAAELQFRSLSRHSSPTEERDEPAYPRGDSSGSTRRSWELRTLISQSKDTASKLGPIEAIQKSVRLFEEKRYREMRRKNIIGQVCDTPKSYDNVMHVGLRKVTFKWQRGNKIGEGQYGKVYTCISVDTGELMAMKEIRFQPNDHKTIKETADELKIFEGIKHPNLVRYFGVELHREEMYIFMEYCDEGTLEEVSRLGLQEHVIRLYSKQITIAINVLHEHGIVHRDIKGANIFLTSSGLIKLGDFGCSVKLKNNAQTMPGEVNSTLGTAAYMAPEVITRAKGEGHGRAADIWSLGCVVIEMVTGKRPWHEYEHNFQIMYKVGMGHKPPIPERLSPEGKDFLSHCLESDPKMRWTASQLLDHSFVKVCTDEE
# [8] = tested on: Epidermal growth factor receptor (Homo sapiens), P00533 [G719C]; experiment: Inhibition of EGFR G719C mutant (unknown origin) at 1 uM by Ambit Kinomescan binding assay relative to control
# Epidermal growth factor receptor (Homo sapiens), P00533 [G719C], sequence (P00533 whole entry G719C): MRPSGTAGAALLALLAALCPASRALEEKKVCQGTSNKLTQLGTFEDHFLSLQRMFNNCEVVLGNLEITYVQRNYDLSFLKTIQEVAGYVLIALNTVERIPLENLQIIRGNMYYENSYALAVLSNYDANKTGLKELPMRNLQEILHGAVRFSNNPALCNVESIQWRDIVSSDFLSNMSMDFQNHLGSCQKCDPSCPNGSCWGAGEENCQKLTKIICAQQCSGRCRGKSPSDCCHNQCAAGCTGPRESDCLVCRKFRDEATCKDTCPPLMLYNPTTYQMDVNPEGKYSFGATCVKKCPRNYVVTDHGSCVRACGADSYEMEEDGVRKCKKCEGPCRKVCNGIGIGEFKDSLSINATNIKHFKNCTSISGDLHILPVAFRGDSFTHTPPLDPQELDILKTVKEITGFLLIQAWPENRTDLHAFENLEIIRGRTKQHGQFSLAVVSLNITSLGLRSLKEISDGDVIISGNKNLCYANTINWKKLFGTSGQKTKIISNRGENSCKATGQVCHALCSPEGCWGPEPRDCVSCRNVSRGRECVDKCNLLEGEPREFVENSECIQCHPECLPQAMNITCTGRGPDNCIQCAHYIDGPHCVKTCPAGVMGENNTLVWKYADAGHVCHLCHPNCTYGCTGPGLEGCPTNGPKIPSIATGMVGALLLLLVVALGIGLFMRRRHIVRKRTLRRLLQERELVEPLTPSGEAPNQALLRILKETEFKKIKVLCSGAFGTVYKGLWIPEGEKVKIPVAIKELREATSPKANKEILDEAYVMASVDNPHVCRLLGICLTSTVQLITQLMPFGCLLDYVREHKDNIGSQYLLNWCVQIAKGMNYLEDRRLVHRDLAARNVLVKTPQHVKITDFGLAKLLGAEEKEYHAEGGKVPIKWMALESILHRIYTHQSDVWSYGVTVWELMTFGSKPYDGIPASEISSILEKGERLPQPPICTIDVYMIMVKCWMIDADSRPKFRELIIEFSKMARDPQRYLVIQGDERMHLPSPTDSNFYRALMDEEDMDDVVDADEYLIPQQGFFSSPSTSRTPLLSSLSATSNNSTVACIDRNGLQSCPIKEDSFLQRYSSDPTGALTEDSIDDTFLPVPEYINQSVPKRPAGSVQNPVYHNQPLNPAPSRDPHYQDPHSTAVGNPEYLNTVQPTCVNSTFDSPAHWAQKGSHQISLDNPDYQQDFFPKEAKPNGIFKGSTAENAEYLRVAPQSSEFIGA
# [9] = biological target: Serine/threonine-protein kinase MARK1 (Homo sapiens) (UniProt Q9P0L2); experiment: Inhibition of MARK1 (unknown origin) at 1 uM by Ambit Kinomescan binding assay relative to control; values are per cent of control
# [10] = biological target: Proto-oncogene tyrosine-protein kinase receptor Ret (Homo sapiens) (UniProt P07949); experiment: Inhibition of RET (unknown origin) at 1 uM by Ambit Kinomescan binding assay relative to control; values are per cent of control
# [11] = biological target: Wee1-like protein kinase 2 (Homo sapiens) (UniProt P0C1S8); experiment: Inhibition of WEE2 (unknown origin) at 1 uM by Ambit Kinomescan binding assay relative to control
compound,measurement,setting,value
CNc1cc(Oc2cc(C(=O)Nc3cc(N4CCN(C)CC4)cc(C(F)(F)F)c3)ccc2C)ncn1,inhibition,[1],-1.2%
same,inhibition,[2],-3.9%
CCN1CCN(Cc2ccc(NC(=O)c3ccc(C)c(Oc4ccnc5[nH]ccc45)c3)cc2C(F)(F)F)CC1,inhibition,[3],13.8%
same,inhibition,[4],0.1%
same,inhibition,[5],inactive
same,percent of control,[6],0.05%
CCN1CCN(Cc2ccc(NC(=O)c3ccc(C)c(/C=C/c4cnc5[nH]ccc5c4OC)c3)cc2C(F)(F)F)CC1,inhibition,[7],-0.6%
same,inhibition,[8],0.45%
same,residual activity,[9],100%
same,percent of control,[10],0%
same,inhibition,[11],74%
